Test results: ChEMBL document CHEMBL4406807, “Discovery of 3,4,6-Trisubstituted Piperidine Derivatives as Orally Active, Low hERG Blocking Akt Inhibitors via Conformational Restriction and Structure-Based Design” (J Med Chem, 2019)

Key:
[1] = Microsomal stability in mouse liver microsomes assessed as compound remaining at 100 ug/ml in presence of NADPH measured at 1.5 hrs by LC/MS analysis; format: ADME, Microsome; conditions: read-out: Stability
[2] = target: RAC-beta serine/threonine-protein kinase (Homo sapiens, UniProt P31751); test: Inhibition of human Akt2 by mobile shift assay
Sequence of RAC-beta serine/threonine-protein kinase (P31751 whole entry): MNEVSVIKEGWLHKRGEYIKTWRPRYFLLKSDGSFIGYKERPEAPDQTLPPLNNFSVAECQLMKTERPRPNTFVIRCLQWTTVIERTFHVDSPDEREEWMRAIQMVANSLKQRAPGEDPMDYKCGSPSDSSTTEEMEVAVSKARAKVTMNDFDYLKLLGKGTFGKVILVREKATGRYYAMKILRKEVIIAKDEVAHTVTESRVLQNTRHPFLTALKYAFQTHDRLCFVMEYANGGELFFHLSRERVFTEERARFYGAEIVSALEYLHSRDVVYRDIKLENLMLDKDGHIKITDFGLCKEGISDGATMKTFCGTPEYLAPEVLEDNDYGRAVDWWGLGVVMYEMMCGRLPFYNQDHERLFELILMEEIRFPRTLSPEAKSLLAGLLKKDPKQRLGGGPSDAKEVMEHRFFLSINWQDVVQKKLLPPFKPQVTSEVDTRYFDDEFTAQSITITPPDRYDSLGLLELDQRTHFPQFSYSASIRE

[3] = Microsomal stability in rat liver microsomes assessed as compound remaining at 100 ug/ml in presence of NADPH measured at 1.5 hrs by LC/MS analysis; format: ADME, Microsome; conditions: read-out: Stability
[4] = Toxicity in po dosed BALB/c nude mouse xenografted with human MM1S cells assessed as maximum tolerated dose administered once daily for 22 days; format: organism-based; conditions: in vivo
[5] = Toxicity in BALB/c nude mouse xenografted with human MM1S cells assessed as reduction in mouse survival at 10 mg/kg, po administered once daily for 22 days; format: organism-based; conditions: in vivo, 528 h
[6] = Toxicity in ICR mouse assessed as reduction in red blood cells at 40 mg/kg, ig administered once daily for 7 days; format: organism-based; conditions: in vivo, po, 168 h
[7] = Toxicity in ICR mouse assessed as reduction in mouse survival at 20 to 40 mg/kg, ig administered once daily for 7 days; format: organism-based; conditions: in vivo, po, 168 h
Protein kinase C (PKC) = test: Inhibition of PKC (unknown origin); format: protein assay, Homo sapiens
[8] = target: RAC-gamma serine/threonine-protein kinase (Homo sapiens, UniProt Q9Y243); test: Inhibition of Akt3 (unknown origin) by mobile shift assay
Sequence of RAC-gamma serine/threonine-protein kinase (Q9Y243 whole entry): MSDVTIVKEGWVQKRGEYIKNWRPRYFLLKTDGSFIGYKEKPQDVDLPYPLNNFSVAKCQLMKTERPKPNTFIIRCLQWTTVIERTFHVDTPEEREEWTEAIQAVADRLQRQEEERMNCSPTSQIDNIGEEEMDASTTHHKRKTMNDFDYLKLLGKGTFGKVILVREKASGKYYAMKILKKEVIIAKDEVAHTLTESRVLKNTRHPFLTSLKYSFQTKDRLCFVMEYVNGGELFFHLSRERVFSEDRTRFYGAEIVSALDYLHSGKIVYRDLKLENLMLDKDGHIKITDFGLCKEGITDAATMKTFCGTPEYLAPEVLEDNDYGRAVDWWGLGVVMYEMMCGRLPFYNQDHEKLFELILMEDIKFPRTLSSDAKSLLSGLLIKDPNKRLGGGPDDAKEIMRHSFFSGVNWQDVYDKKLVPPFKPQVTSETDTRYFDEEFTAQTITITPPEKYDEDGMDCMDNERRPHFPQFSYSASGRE

[9] = target: Ribosomal protein S6 kinase beta-1 (Homo sapiens, UniProt P23443); test: Inhibition of human P70S6K by mobility shift assay
Sequence of Ribosomal protein S6 kinase beta-1 (P23443 whole entry): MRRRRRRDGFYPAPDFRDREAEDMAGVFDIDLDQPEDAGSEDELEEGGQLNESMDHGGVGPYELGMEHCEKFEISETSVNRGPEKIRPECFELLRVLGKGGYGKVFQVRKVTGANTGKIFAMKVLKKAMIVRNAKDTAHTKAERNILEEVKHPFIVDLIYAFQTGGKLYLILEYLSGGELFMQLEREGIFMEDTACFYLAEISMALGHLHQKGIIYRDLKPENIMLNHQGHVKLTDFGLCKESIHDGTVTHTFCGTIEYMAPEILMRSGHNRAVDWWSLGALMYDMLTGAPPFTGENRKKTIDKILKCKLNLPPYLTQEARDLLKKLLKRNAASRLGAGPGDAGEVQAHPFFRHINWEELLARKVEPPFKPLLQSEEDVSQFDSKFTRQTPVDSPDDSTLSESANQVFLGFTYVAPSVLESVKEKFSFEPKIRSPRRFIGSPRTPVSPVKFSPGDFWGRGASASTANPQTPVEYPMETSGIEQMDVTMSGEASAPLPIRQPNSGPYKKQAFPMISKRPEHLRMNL

[10] = Oral bioavailability in ICR mouse at 20 mg/kg measured up to 48 hrs by LC-MS/MS analysis; format: ADME, organism-based; conditions: in vivo
[11] = Toxicity in ICR mouse assessed as reduction in specific volume of RBC at 40 mg/kg, ig administered once daily for 7 days; format: organism-based; conditions: in vivo, po, 168 h
[12] = Toxicity in BALB/c nude mouse xenografted with human MM1S cells assessed as reduction in body weight at 10 mg/kg, po administered once daily for 22 days relative to control; format: organism-based; parameters: scale not given: the % may be the effect or the level left; conditions: in vivo, 528 h
[13] = Toxicity in ICR mouse assessed as reduction in hemoglobin level at 40 mg/kg, ig administered once daily for 7 days; format: organism-based; conditions: in vivo, po, 168 h
[14] = target: Serine/threonine-protein kinase AKT (Homo sapiens, UniProt P31751+Q9Y243+P31749); test: Inhibition of Akt in human LNCaP cells assessed as reduction in PRAS40 phosphorylation at T246 residue after 1 hr by ELISA; format: cell-based
[15] = Half-life in ICR mouse at 20 mg/kg, po measured up to 48 hrs by LC-MS/MS analysis; format: ADME, organism-based; conditions: in vivo
[16] = AUC (0 to infinity) in ICR mouse at 20 mg/kg, po measured up to 48 hrs by LC-MS/MS analysis; format: ADME, organism-based; parameters: dose 20 mg/kg, time infinity, route oral; conditions: in vivo
[17] = target: RAC-alpha serine/threonine-protein kinase (Homo sapiens, UniProt P31749)
Description: Inhibition of human Akt1 expressed in Escherichia coli using STK Substrate 2-biotin as substrate incubated for 1 hr by HTRF assay

hERG (KCNH2) = hERG (KCNH2) (Homo sapiens, UniProt Q12809); test: Inhibition of ERG in human HEK293 cells at 3 uM at -80 mV holding potential by whole-cell patch clamp assay relative to control; format: cell-based; conditions: HEK293 cells expressing ERG
Sequence of hERG (KCNH2) (Q12809 whole entry): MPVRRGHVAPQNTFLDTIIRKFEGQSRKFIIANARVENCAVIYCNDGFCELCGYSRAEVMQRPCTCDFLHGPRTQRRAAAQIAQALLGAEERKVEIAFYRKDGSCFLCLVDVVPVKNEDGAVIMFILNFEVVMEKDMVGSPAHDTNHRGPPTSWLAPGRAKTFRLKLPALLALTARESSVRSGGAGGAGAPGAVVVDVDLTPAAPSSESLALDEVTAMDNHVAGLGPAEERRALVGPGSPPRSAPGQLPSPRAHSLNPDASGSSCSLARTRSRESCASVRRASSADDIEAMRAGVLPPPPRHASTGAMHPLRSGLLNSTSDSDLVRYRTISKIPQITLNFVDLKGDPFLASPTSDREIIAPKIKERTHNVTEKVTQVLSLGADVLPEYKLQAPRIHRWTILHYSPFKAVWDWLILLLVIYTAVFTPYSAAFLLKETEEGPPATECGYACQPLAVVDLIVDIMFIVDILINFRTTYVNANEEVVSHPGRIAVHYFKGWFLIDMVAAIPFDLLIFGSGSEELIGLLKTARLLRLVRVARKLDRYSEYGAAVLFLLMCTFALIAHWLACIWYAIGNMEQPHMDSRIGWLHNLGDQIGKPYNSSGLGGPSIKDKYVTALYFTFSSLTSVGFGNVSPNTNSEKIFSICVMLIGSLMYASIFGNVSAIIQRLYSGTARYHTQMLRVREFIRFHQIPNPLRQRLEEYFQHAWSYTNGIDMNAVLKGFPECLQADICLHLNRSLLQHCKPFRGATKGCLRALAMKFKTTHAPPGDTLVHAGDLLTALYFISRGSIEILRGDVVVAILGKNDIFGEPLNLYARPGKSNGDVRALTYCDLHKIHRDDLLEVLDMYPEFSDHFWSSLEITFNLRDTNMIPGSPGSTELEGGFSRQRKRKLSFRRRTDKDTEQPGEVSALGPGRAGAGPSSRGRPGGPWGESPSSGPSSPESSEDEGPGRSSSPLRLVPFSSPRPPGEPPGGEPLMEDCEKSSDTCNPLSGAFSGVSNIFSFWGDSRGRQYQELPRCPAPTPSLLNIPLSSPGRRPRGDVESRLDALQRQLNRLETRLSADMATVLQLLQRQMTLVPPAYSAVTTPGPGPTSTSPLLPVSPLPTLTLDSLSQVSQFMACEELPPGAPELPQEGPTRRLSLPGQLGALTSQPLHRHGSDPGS

OVCAR-8 = test: Antiproliferative activity against human OVCAR8 cells; format: functional, cell-based
[18] = Cmax in ICR mouse at 20 mg/kg, po measured up to 48 hrs by LC-MS/MS analysis; format: ADME, organism-based; parameters: dose 20 mg/kg, route oral; conditions: in vivo
[19] = target: Rho-associated protein kinase 1 (Homo sapiens, UniProt Q13464); test: Inhibition of human ROCK1 by mobile shift assay
Sequence of Rho-associated protein kinase 1 (Q13464 whole entry): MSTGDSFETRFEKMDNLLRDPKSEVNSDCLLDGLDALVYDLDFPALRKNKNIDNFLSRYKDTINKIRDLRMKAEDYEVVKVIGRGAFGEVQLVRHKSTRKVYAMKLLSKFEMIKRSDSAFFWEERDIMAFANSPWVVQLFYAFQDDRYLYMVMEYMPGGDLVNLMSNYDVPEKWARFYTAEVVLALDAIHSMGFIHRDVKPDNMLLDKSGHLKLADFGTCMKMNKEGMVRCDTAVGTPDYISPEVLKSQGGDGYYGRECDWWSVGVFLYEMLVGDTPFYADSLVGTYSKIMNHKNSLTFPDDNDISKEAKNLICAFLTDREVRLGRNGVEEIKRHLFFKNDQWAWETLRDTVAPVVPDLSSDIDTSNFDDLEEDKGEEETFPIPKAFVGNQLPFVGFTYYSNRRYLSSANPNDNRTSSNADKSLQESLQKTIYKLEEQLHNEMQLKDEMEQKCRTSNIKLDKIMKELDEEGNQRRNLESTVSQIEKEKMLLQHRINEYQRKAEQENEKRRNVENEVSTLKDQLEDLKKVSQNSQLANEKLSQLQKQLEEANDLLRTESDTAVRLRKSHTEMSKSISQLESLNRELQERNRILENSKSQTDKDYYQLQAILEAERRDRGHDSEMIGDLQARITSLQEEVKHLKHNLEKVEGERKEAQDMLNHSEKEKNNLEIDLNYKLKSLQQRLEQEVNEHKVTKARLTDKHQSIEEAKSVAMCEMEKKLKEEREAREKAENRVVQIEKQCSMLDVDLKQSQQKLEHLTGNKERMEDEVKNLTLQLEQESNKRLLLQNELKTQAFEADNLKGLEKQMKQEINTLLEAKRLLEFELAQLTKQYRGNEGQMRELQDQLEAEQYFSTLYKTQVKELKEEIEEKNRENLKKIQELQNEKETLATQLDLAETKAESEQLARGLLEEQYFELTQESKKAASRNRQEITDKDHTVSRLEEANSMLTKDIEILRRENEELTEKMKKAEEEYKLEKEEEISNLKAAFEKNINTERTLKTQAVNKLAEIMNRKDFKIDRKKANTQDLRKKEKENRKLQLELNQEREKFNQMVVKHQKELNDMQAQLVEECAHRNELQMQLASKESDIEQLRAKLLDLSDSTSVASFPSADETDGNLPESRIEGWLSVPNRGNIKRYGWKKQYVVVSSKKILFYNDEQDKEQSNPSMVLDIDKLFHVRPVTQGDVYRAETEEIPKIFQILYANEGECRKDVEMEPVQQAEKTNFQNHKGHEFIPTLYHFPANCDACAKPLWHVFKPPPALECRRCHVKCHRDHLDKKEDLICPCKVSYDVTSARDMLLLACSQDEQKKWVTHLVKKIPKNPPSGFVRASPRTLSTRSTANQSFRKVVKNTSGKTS

HCT-116 = test: cells; conditions: Homo sapiens, HCT-116, 72 h
MM1.S = test: Antitumor activity against human MM1S cells xenografted in BALB/c nude mouse assessed as tumor growth inhibition at 10 mg/kg, po administered once daily for 22 days relative to control; format: functional; conditions: 528 h, read-out: TGI
[20] = Toxicity in ICR mouse assessed as induction of heavy gastrointestinal hemorrhage by autopsy analysis; conditions: in vivo
LNCaP = test: Antiproliferative activity against human LNCAP cells; format: functional, cell-based
[21] = Microsomal stability in monkey liver microsomes assessed as compound remaining at 100 ug/ml in presence of NADPH measured at 1.5 hrs by LC/MS analysis; format: ADME, Macaca mulatta, Microsome; conditions: rhesus monkey, read-out: Stability
[22] = Microsomal stability in dog liver microsomes assessed as compound remaining at 100 ug/ml in presence of NADPH measured at 1.5 hrs by LC/MS analysis; format: ADME, Canis lupus familiaris, Microsome; conditions: read-out: Stability
[23] = target: Ribosomal protein S6 kinase alpha-1 (Homo sapiens, UniProt Q15418); test: Inhibition of RSK1 (unknown origin) by mobility shift assay
Sequence of Ribosomal protein S6 kinase alpha-1 (Q15418 whole entry): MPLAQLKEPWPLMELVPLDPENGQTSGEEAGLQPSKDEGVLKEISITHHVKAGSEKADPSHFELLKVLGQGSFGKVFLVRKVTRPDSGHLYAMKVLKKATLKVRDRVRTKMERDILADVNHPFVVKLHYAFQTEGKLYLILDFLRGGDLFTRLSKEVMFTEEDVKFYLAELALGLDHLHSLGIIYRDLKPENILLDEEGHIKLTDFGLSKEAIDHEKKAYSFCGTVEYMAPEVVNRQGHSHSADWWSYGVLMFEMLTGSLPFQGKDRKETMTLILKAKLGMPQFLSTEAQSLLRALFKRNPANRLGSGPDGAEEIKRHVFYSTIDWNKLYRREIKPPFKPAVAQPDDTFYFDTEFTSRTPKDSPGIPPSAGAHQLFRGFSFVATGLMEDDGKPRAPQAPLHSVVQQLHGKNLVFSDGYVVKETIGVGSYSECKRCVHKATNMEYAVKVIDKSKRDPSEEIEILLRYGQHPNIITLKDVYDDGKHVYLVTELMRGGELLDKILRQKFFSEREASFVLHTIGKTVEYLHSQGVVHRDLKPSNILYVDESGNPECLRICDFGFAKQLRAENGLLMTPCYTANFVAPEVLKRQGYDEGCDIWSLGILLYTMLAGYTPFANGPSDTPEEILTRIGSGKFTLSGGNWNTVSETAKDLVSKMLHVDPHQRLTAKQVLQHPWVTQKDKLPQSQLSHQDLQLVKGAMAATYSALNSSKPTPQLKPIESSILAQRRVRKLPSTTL

[24] = Toxicity in ICR mouse assessed as reduction in creatinine level at 40 mg/kg, ig administered once daily for 7 days; format: organism-based; conditions: in vivo, po, 168 h
[25] = target: T1, Serine/threonine-protein kinase Sgk1 (Homo sapiens, UniProt O00141); test: Inhibition of human SGK by mobility shift assay
T1 sequence (O00141 whole entry): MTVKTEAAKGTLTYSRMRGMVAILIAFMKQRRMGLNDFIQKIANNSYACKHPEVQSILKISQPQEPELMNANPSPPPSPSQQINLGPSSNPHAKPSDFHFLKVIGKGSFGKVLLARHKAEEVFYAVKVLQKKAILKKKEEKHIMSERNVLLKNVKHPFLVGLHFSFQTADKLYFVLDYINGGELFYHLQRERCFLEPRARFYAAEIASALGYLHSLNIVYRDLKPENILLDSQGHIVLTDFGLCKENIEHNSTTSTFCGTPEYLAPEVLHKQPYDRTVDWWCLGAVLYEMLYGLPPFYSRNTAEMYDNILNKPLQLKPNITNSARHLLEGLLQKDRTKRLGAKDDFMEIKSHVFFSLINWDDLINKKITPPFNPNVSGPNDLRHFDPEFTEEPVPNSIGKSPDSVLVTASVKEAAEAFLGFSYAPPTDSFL

Work on `Cn1ncc(Cl)c1-c1cc(C(=O)N[C@@H]2CNCC[C@H]2c2ccc(F)c(F)c2)oc1Cl.O=C(O)C(O)C(O)C(=O)O` yielded a remaining at 1.5 h, 100 ug/ml [1] of 89.9%, an IC50 [2] of under 0.00064 µM and a remaining at 1.5 h, 100 ug/ml [3] of 69.7%. For the same compound, the MTD at 528 h [4] was under 10 mg/kg, the Activity [5] was “Toxic” and the Activity [6] was “Toxic”. The Activity [7] was “Toxic”, the IC50 (Protein kinase C (PKC)) was 0.156 µM and the IC50 [8] was 0.0001 µM. For the same compound, the IC50 [9] was 0.007 µM, the bioavailability [10] was 97.9% and the Activity [11] was “Toxic”. The Activity [12] was “<= 25%”, the Activity [13] was “Toxic” and the IC50 [14] was 0.0211 µM. It also gave a half-life [15] of 10.7 h, an AUC [16] of 6670 ng·h/mL and an IC50 [17] of 0.003 µM. The inhibition at 3 µM (hERG (KCNH2)) was 62.1%, the IC50 (OVCAR-8) was 0.04 µM and the Cmax [18] was 398 ng/mL. It also gave an IC50 [19] of 0.02 µM, an IC50 (HCT-116) of 0.21 µM and an inhibition in vivo at 10 mg/kg (MM1.S) of 87.5%. The Activity [20] was “Toxic”, the IC50 (LNCaP) was 0.06 µM and the remaining at 1.5 h, 100 ug/ml [21] was 39.9%. The remaining at 1.5 h, 100 ug/ml [22] was 86.9%, the IC50 [23] was 0.048 µM and the Activity [24] was “Toxic”. It also gave an IC50 [25] of 0.059 µM.
